These results are taken from patent publication US20250320224A1 (DOMAIN THERAPEUTICS, priority 2022, published 2025).

A word on the IC50: it is the concentration that inhibits the measured activity by half.

Structures can show the parent of a compound that is named as a salt.

For the test, the target named is T1, human PAR-2 (hPAR-2) receptor (Homo sapiens, UniProt P55085).
T1 construct: expressed in HEK-293 cells in an endogenous manner; endogenous in cells; host or cells: HEK-293
T1 sequence (P55085 26-397): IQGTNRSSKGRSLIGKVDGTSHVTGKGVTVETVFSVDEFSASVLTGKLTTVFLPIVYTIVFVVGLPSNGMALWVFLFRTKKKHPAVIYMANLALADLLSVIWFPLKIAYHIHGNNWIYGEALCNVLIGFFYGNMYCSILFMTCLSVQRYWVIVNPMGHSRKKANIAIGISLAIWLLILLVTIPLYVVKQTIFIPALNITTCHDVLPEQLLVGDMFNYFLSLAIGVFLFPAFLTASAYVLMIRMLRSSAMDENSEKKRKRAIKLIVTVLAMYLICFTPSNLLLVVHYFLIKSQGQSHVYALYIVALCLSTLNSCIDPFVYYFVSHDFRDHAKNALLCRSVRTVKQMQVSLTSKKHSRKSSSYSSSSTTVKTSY
Nature of the test: In vitro human PAR-2 functional antagonist activity using calcium assays. The class given is cell-based. As to conditions: hPAR-2 endogenously expressed in HEK-293 cells; stimulated by 2-Furoyl-LIGRLO-NH2 peptide; Fluo4AM intracellular calcium, FLIPR Tetra. An outline of the steps: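 HEK-293 cells with endogenous hPAR-2 were loaded with Fluo4AM and read for intracellular Ca2+ on FLIPR. After 10 min with compound alone, cells were stimulated with 2-Furoyl-LIGRLO-NH2 at the concentration giving 80% of maximal response. Inhibition was then recorded over 5 min relative to buffer and agonist-only signals.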
As to `CCC1(CC)CN(c2ccc(Cl)c(F)c2)c2ccc(C(=O)N3CCN(c4cc(C)c(C(=O)O)c(C)n4)CC3(C)C)nc21` [Example 103, 6-(4-(1-(4-chloro-3-fluorophenyl)-3,3-diethyl-2,3-dihydro-1H-pyrrolo[3,2-b]pyridine-5-carbonyl)-3,3-dimethylpiperazin-1-yl)-2,4-dimethylnicotinic acid], the IC50 is less than 500 nM.

Regarding `CC1(C)CN(c2ccc(Cl)c(F)c2)c2ccc(C(=O)N3CCN(c4cc(C(=O)O)ccn4)CC3(C)C)nc21` [Example 105, 2-(4-(1-(4-chloro-3-fluorophenyl)-3,3-dimethyl-2,3-dihydro-1H-pyrrolo[3,2-b]pyridine-5-carbonyl)-3,3-dimethylpiperazin-1-yl)isonicotinic acid], the IC50 was less than 500 nM.

Regarding `CC1(C)CN(c2ccc(Cl)c(F)c2)c2ccc(C(=O)N3CCN(c4cnccc4C(=O)O)CC3(C)C)nc21` [Example 107, 3-(4-(1-(4-chloro-3-fluorophenyl)-3,3-dimethyl-2,3-dihydro-1H-pyrrolo[3,2-b]pyridine-5-carbonyl)-3,3-dimethylpiperazin-1-yl)isonicotinic acid], the IC50 fell in the range of 500 to 10000 nM.

For the molecule `CC1(C)CN(c2ccc(Cl)c(F)c2)c2ccc(C(=O)N3CCCC(Nc4ccc(C(=O)O)cn4)C3)nc21` (centres unmarked) [Example 109, 6-((1-(1-(4-chloro-3-fluorophenyl)-3,3-dimethyl-2,3-dihydro-1H-pyrrolo[3,2-b]pyridine-5-carbonyl)piperidin-3-yl)amino)nicotinic acid], the IC50 is more than 10000 nM.

On to `CN(c1ccc(C(=O)O)cn1)C1CCCN(C(=O)c2ccc3c(n2)C(C)(C)CN3c2ccc(Cl)c(F)c2)C1` (centres unmarked) [Example 111, 6-((1-(1-(4-chloro-3-fluorophenyl)-3,3-dimethyl-2,3-dihydro-1H-pyrrolo[3,2-b]pyridine-5-carbonyl)piperidin-3-yl)(methyl)amino)nicotinic acid hydrochloride], for which the IC50 is 500 to 10000 nM.

For `Cc1cc(N2CCN(C(=O)c3ccc4c(n3)C3(CCCC3)CN4c3ccc(F)c(F)c3)C(C)(C)C2)nc(C)c1C(=O)O` [Example 113, 6-(4-(1′-(3,4-difluorophenyl)-1′,2′-dihydrospiro[cyclopentane-1,3′-pyrrolo[3,2-b]pyridine]-5′-carbonyl)-3,3-dimethylpiperazin-1-yl)-2,4-dimethylnicotinic acid], the IC50 is less than 500 nM.

For `CC1(C)CN(c2ccc(Cl)c(F)c2)c2ccc(C(=O)N3CCN(c4cc(CC(=O)O)ccn4)CC3(C)C)nc21` [Example 115, 2-(2-(4-(1-(4-chloro-3-fluorophenyl)-3,3-dimethyl-2,3-dihydro-1H-pyrrolo[3,2-b]pyridine-5-carbonyl)-3,3-dimethylpiperazin-1-yl)pyridin-4-yl)acetic acid], the IC50 was less than 500 nM.

For `CC1(C)CN(c2ccc(Cl)c(F)c2)c2ccc(C(=O)N3CCN(c4ccc(CC(=O)O)nc4)CC3(C)C)nc21` [Example 117, 2-(5-(4-(1-(4-chloro-3-fluorophenyl)-3,3-dimethyl-2,3-dihydro-1H-pyrrolo[3,2-b]pyridine-5-carbonyl)-3,3-dimethylpiperazin-1-yl)pyridin-2-yl)acetic acid], the IC50 is less than 500 nM.

For the molecule `CC1(C)CN(c2ccc(CC(=O)O)cn2)CCN1C(=O)c1ccc2c(n1)C1(CCC1)CN2c1ccc(Cl)c(F)c1` [Example 119, 2-(6-(4-(1′-(4-chloro-3-fluorophenyl)-1′,2′-dihydrospiro[cyclobutane-1,3′-pyrrolo[3,2-b]pyridine]-5′-carbonyl)-3,3-dimethylpiperazin-1-yl)pyridin-3-yl)acetic acid], the IC50 is less than 500 nM.

As to `CC1(C)CN(c2ccc(Cl)c(F)c2)c2ccc(C(=O)N3CCC4(C3)C(=O)Nc3ccccc34)nc21` (centres unmarked) [Example 120, 1′-(1-(4-chloro-3-fluorophenyl)-3,3-dimethyl-2,3-dihydro-1H-pyrrolo[3,2-b]pyridine-5-carbonyl)spiro[indoline-3,3′-pyrrolidin]-2-one], the IC50 is more than 10000 nM.

For `CC1(C)CN(c2ccc(Cl)c(F)c2)c2ccc(C(=O)N3CCC4(CC3)CNC(=O)O4)nc21` [Example 121, 8-(1-(4-chloro-3-fluorophenyl)-3,3-dimethyl-2,3-dihydro-1H-pyrrolo[3,2-b]pyridine-5-carbonyl)-1-oxa-3,8-diazaspiro[4.5]decan-2-one], the IC50 is 500 to 10000 nM.

As for `CC1(C)CN(c2ccc(Cl)c(F)c2)c2ccc(C(=O)N3CC4(C3)CN(c3ccc(C(=O)O)cn3)C4)nc21` [Example 123, 6-(6-(1-(4-chloro-3-fluorophenyl)-3,3-dimethyl-2,3-dihydro-1H-pyrrolo[3,2-b]pyridine-5-carbonyl)-2,6-diazaspiro[3.3]heptan-2-yl)nicotinic acid], the IC50 is more than 10000 nM.

In the case of `O=C(O)CC1CCN(C(=O)c2ccc3c(n2)C2(CCC2)CN3c2ccc(Cl)c(F)c2)CC1` [Example 125, 2-(1-(1′-(4-chloro-3-fluorophenyl)-1′,2′-dihydrospiro[cyclobutane-1,3′-pyrrolo[3,2-b]pyridine]-5′-carbonyl)piperidin-4-yl)acetic acid], the IC50 was 500 to 10000 nM.

As to `CC1(C)C(=O)NCCN1C(=O)c1ccc2c(n1)C1(CCC1)CN2c1ccc(Cl)c(F)c1` [Example 126, 4-(1′-(4-chloro-3-fluorophenyl)-1′,2′-dihydrospiro[cyclobutane-1,3′-pyrrolo[3,2-b]pyridine]-5′-carbonyl)-3,3-dimethylpiperazin-2-one], the concentration for half-maximal inhibition (IC50) is less than 500 nM.

As to `CC1(C)CN(c2ccc(CC(=O)O)cn2)CCN1C(=O)c1ccc2c(n1)C1(CN2c2ccc(Cl)c(F)c2)CC(F)(F)C1` [Example 128, 2-(6-(4-(1′-(4-chloro-3-fluorophenyl)-3,3-difluoro-1′,2′-dihydrospiro[cyclobutane-1,3′-pyrrolo[3,2-b]pyridine]-5′-carbonyl)-3,3-dimethylpiperazin-1-yl)pyridin-3-yl)acetic acid], the IC50 was less than 500 nM.

Consider `Cc1cc(N2CCN(C(=O)c3ccc(N4CC(C)(C)c5nc(C(=O)N6CCN(c7cc(C)c(C(=O)O)c(C)n7)CC6(C)C)ccc54)nc3)C(C)(C)C2)nc(C)c1C(=O)O` [Example 133, 6-(4-(6-(5-(4-(5-carboxy-4,6-dimethylpyridin-2-yl)-2,2-dimethylpiperazine-1-carbonyl)-3,3-dimethyl-2,3-dihydro-1H-pyrrolo[3,2-b]pyridin-1-yl)nicotinoyl)-3,3-dimethylpiperazin-1-yl)-2,4-dimethylnicotinic acid], for which the IC50 is more than 10000 nM.

Turning to `Cc1cc(N2CCN(C(=O)c3ccc4c(n3)C(C)(C)CN4c3ccc(Cl)cn3)C(C)(C)C2)nc(C)c1C(=O)O` [Example 134, 6-(4-(1-(5-chloropyridin-2-yl)-3,3-dimethyl-2,3-dihydro-1H-pyrrolo[3,2-b]pyridine-5-carbonyl)-3,3-dimethylpiperazin-1-yl)-2,4-dimethylnicotinic acid], the IC50 was less than 500 nM.

`COC(=O)c1c(C)cc(N2CCN(C(=O)c3ccc4c(n3)C(C)(C)CN4c3ccccn3)C(C)(C)C2)nc1C` [Example 135, methyl 6-(4-(3,3-dimethyl-1-(pyridin-2-yl)-2,3-dihydro-1H-pyrrolo[3,2-b]pyridine-5-carbonyl)-3,3-dimethylpiperazin-1-yl)-2,4-dimethylnicotinate]: the IC50 was in the range of 500 to 10000 nM.

In the case of `Cc1ccc(N2CCN(C(=O)c3ccc4c(n3)C(C)(C)CN4c3ccc(Cl)c(F)c3)C(C)(C)C2)nc1C(=O)O` [Example 140, 6-(4-(1-(4-chloro-3-fluorophenyl)-3,3-dimethyl-2,3-dihydro-1H-pyrrolo[3,2-b]pyridine-5-carbonyl)-3,3-dimethylpiperazin-1-yl)-3-methylpicolinic acid], the IC50 is less than 500 nM.

As to `COc1ncc(N2CCN(C(=O)c3ccc4c(n3)C(C)(C)CN4c3ccc(Cl)c(F)c3)C(C)(C)C2)cc1C(=O)O` [Example 142, 5-(4-(1-(4-chloro-3-fluorophenyl)-3,3-dimethyl-2,3-dihydro-1H-pyrrolo[3,2-b]pyridine-5-carbonyl)-3,3-dimethylpiperazin-1-yl)-2-methoxynicotinic acid], the IC50 was less than 500 nM.

`CO[C@@H]1CCC2(C1)CN(c1ccc(Cl)c(F)c1)c1ccc(C(=O)N3CCN(c4cc(C)c(C(=O)O)c(C)n4)CC3(C)C)nc12` (stereo partly drawn) [Example 144, 6-(4-((3R)-1′-(4-chloro-3-fluorophenyl)-3-methoxy-1′,2′-dihydrospiro[cyclopentane-1,3′-pyrrolo[3,2-b]pyridine]-5′-carbonyl)-3,3-dimethylpiperazin-1-yl)-2,4-dimethylnicotinic acid]: the IC50 was less than 500 nM.

In the case of `CO[C@H]1CCC2(C1)CN(c1ccc(Cl)c(F)c1)c1ccc(C(=O)N3CCN(c4cc(C)c(C(=O)O)c(C)n4)CC3(C)C)nc12` (stereo partly drawn) [Example 146, 6-(4-((3S)-1′-(4-chloro-3-fluorophenyl)-3-methoxy-1′,2′-dihydrospiro[cyclopentane-1,3′-pyrrolo[3,2-b]pyridine]-5′-carbonyl)-3,3-dimethylpiperazin-1-yl)-2,4-dimethylnicotinic acid], the IC50 is less than 500 nM.

`CCC1(CC)CN(c2ccc(Cl)c(F)c2)c2ccc(C(=O)N3CCN(c4ccc(CC(=O)O)cn4)CC3(C)C)nc21` [Example 148, 2-(6-(4-(1-(4-chloro-3-fluorophenyl)-3,3-diethyl-2,3-dihydro-1H-pyrrolo[3,2-b]pyridine-5-carbonyl)-3,3-dimethylpiperazin-1-yl)pyridin-3-yl)acetic acid]: the IC50 is less than 500 nM.
